Source: the NIST ThermoML archive (doi:10.1016/j.tca.2006.04.001)
Numbers after ± are expanded uncertainties.

Details: Liquid, Pycnometric method

CCCCCCCCCCCCCCCCCC [octadecane]
Details | specific volume [m3/kg]
299.25 K | 0.00129 ± 1.9e-05
301.35 K | 0.001292 ± 1.9e-05
303.35 K | 0.001295 ± 1.9e-05
305.45 K | 0.001295 ± 1.9e-05
307.55 K | 0.001298 ± 1.9e-05
309.55 K | 0.001301 ± 1.9e-05
311.65 K | 0.001301 ± 1.9e-05
313.65 K | 0.001304 ± 2e-05
315.75 K | 0.001308 ± 2e-05
317.75 K | 0.001311 ± 2e-05
318.65 K | 0.001318 ± 2e-05
319.85 K | 0.001317 ± 2e-05
320.65 K | 0.001319 ± 2e-05
323.55 K | 0.001323 ± 2e-05
325.45 K | 0.001324 ± 2e-05
328.35 K | 0.00133 ± 2e-05
330.35 K | 0.001331 ± 2e-05
333.25 K | 0.001335 ± 2e-05
335.15 K | 0.001337 ± 2e-05
338.05 K | 0.001341 ± 2e-05
341.05 K | 0.001345 ± 2e-05
342.95 K | 0.001346 ± 2e-05
345.85 K | 0.00135 ± 2e-05
347.85 K | 0.001354 ± 2e-05
350.75 K | 0.001357 ± 2e-05
352.65 K | 0.00136 ± 2e-05
355.55 K | 0.001363 ± 2.1e-05
357.55 K | 0.001364 ± 2.1e-05
360.45 K | 0.001368 ± 2.1e-05
362.35 K | 0.001372 ± 2.1e-05
365.25 K | 0.001375 ± 2.1e-05
367.25 K | 0.001377 ± 2.1e-05
370.15 K | 0.001382 ± 2.1e-05
372.05 K | 0.001385 ± 2.1e-05
374.95 K | 0.001388 ± 2.1e-05
376.95 K | 0.001391 ± 2.1e-05
379.85 K | 0.001395 ± 2.1e-05
381.75 K | 0.001398 ± 2.1e-05
384.75 K | 0.001402 ± 2.1e-05
386.65 K | 0.001404 ± 2.1e-05
389.55 K | 0.001409 ± 2.1e-05
391.55 K | 0.001411 ± 2.1e-05
394.45 K | 0.001416 ± 2.1e-05
396.35 K | 0.001419 ± 2.1e-05
399.25 K | 0.001423 ± 2.1e-05
401.25 K | 0.001425 ± 2.1e-05
404.15 K | 0.001429 ± 2.2e-05
406.05 K | 0.001433 ± 2.2e-05
408.95 K | 0.001437 ± 2.2e-05
410.95 K | 0.00144 ± 2.2e-05
413.85 K | 0.001444 ± 2.2e-05
415.75 K | 0.001448 ± 2.2e-05
418.65 K | 0.001451 ± 2.2e-05
420.65 K | 0.001455 ± 2.2e-05
423.55 K | 0.001459 ± 2.2e-05
425.45 K | 0.001456 ± 2.2e-05
428.45 K | 0.001464 ± 2.2e-05
430.35 K | 0.001464 ± 2.2e-05
433.25 K | 0.001474 ± 2.2e-05
435.25 K | 0.001471 ± 2.2e-05
438.15 K | 0.001482 ± 2.2e-05
440.05 K | 0.001478 ± 2.2e-05
442.95 K | 0.001488 ± 2.2e-05
444.95 K | 0.001485 ± 2.2e-05
447.85 K | 0.001496 ± 2.3e-05
449.75 K | 0.001498 ± 2.3e-05
452.65 K | 0.001502 ± 2.3e-05
454.65 K | 0.001506 ± 2.3e-05
457.55 K | 0.001512 ± 2.3e-05
459.45 K | 0.001513 ± 2.3e-05
462.45 K | 0.00152 ± 2.3e-05
464.35 K | 0.001522 ± 2.3e-05
467.25 K | 0.00153 ± 2.3e-05
469.15 K | 0.001528 ± 2.3e-05
472.15 K | 0.001538 ± 2.3e-05
474.05 K | 0.001535 ± 2.3e-05
476.95 K | 0.001546 ± 2.3e-05
478.95 K | 0.001545 ± 2.3e-05
481.85 K | 0.001557 ± 2.3e-05
483.75 K | 0.001554 ± 2.3e-05
486.65 K | 0.001564 ± 2.3e-05
488.65 K | 0.001562 ± 2.3e-05
491.55 K | 0.001573 ± 2.4e-05
493.45 K | 0.001571 ± 2.4e-05
496.35 K | 0.001577 ± 2.4e-05
498.35 K | 0.001582 ± 2.4e-05
500.25 K | 0.001587 ± 2.4e-05
503.15 K | 0.001592 ± 2.4e-05
505.15 K | 0.001595 ± 2.4e-05
508.05 K | 0.001602 ± 2.4e-05
510.95 K | 0.001609 ± 2.4e-05
512.95 K | 0.00161 ± 2.4e-05
515.85 K | 0.001619 ± 2.4e-05
518.75 K | 0.001623 ± 2.4e-05
520.65 K | 0.001628 ± 2.4e-05
523.55 K | 0.001634 ± 2.5e-05
525.55 K | 0.001639 ± 2.5e-05
527.45 K | 0.001644 ± 2.5e-05
530.35 K | 0.001649 ± 2.5e-05
533.25 K | 0.001657 ± 2.5e-05
535.25 K | 0.001659 ± 2.5e-05
538.15 K | 0.001666 ± 2.5e-05
541.05 K | 0.001675 ± 2.5e-05
543.05 K | 0.001677 ± 2.5e-05
545.95 K | 0.001685 ± 2.5e-05
548.85 K | 0.001691 ± 2.5e-05
550.75 K | 0.001697 ± 2.6e-05
553.65 K | 0.001704 ± 2.6e-05
555.65 K | 0.001706 ± 2.6e-05
558.55 K | 0.001714 ± 2.6e-05
560.45 K | 0.00172 ± 2.6e-05
563.45 K | 0.00173 ± 2.6e-05
566.35 K | 0.001737 ± 2.6e-05
568.25 K | 0.001741 ± 2.6e-05
